For assay [1], the system named is carrageenan-induced paw edema. Kind of assay: carrageenan induced paw edema in rats. As to conditions: 10 mg/kg oral. Format: in vivo, SD rats. As to the method: (§1) Animal Material. Male and female ICR mice weighing 18-24 g and male SD rats weighing 150-210 g were purchased from the Laboratory Animal Services Center, the Chinese University of Hong Kong, Hong Kong. The animals were acclimated for more than 1 week under 12 hours light and 12 hours dark cycle at room temperature of 22±1° C. Chow diet and water were provided ad libitum. Animal care and treatment procedures conformed to the Institutional Guidelines and Animal Ordinance (Department of Health, Hong Kong Special Administrative Region.) Mice and rats were fasted for 16 hours and 48 hours, respectively, before experiment. Mode of Administration. The PSF solutions for anti-inflammatory and analgesic experiments were prepared by dissolving the product in 30% propanediol solution (for i.p. injection) and 0.5% (w/v) carboxymethylcellulose sodium salt (CMC—Na) (for orally administration), respectively. The reference drug indomethacin for anti-inflammatory test was dissolved in a vehicle that consisted of 10% peanut oil, 10% Tween-80 and 80% distilled water. Rotundine was suspended in 0.5% (w/v) CMC—Na salt and used as reference drug for anti-nociceptive experiment. The experiment was conducted as previously described by Winter^1. At the induction, each rat was injected with 0.1 ml freshly prepared carrageenan (1% w/v) in physiological saline (0.9% w/v NaCl) into subplantar tissues of the right hind paw. The left hind paws without injection were used as controls. PSF was i.p. administrated 10 minutes prior to carrageenan injection. Control animals received an appropriate volume of 30% propanediol. Indomethacin was orally administrated 1 hr before the carrageenan injection as a reference drug. The volumes (ml) of both hind paws were measured using a plethysmometer (Plethysmometer 7150, UGO Basile, Italy) at 1 hour before the induction and 1, 2, 3, 4, 6, and 8 hours after the induction. The increased volumes (paw edema) of the right hind paws of rats were calculated by the following equation: the increased rate (%)=(B−A)/A×100, where A and B represent the paw volumes before and at different time points after the induction, respectively.
(In general: In the carrageenan paw model, swelling and tenderness develop within hours.)

Assay [2] concerns histamine-induced paw edema. Kind of assay: histamine induced paw edema in rats. As to conditions: 10 mg/kg oral. The format is in vivo, SD rats. As to the method:
as §1, with “experiment. The volumes (ml)” for “experiment. The experiment was conducted as previously described by Winter^1. At the induction, each rat was injected with 0.1 ml freshly prepared carrageenan (1% w/v) in physiological saline (0.9% w/v NaCl) into subplantar tissues of the right hind paw. The left hind paws without injection were used as controls. PSF was i.p. administrated 10 minutes prior to carrageenan injection. Control animals received an appropriate volume of 30% propanediol. Indomethacin was orally administrated 1 hr before the carrageenan injection as a reference drug. The volumes (ml)”, “induction, respectively. The acute inflammation in the hind paws was induced by the subcutaneous injection of 0.05 ml 1% prepared solutions of histamine into right hind paws of rats. The left hind paws were used as controls. Administration of PSF (12.5 mg/kg, 25 mg/kg, 50 mg/kg, 100 mg/kg body weight, i.p. injection), or of the vehicle (30% propanediol) was performed at 10 minutes prior to carrageenan injection. Indomethacin was orally administrated at 1 hour before the induction. The volumes of the injected and control paws were measured at different time points designed from 0.5 to 4 hours after injection of histamine. The increased rates in paw volume were calculated in the same way as in carrageenan.” for “induction, respectively.”

Assay [3] concerns acetic acid induced writhing response. Kind of assay: abdominal writhing test induced by acetic acid in mice. The format is in vivo, ICR mice. As to the method: Animal Material. Male and female ICR mice weighing 18-24 g and male SD rats weighing 150-210 g were purchased from the Laboratory Animal Services Center, the Chinese University of Hong Kong, Hong Kong. The animals were acclimated for more than 1 week under 12 hours light and 12 hours dark cycle at room temperature of 22±1° C. Chow diet and water were provided ad libitum. Animal care and treatment procedures conformed to the Institutional Guidelines and Animal Ordinance (Department of Health, Hong Kong Special Administrative Region.) Mice and rats were fasted for 16 hours and 48 hours, respectively, before experiment. Mode of Administration. The PSF solutions for anti-inflammatory and analgesic experiments were prepared by dissolving the product in 30% propanediol solution (for i.p. injection) and 0.5% (w/v) carboxymethylcellulose sodium salt (CMC—Na) (for orally administration), respectively. The reference drug indomethacin for anti-inflammatory test was dissolved in a vehicle that consisted of 10% peanut oil, 10% Tween-80 and 80% distilled water. Rotundine was suspended in 0.5% (w/v) CMC—Na salt and used as reference drug for anti-nociceptive experiment. The abdominal writhing test induced by chemical stimulation of acetic acid was performed in mice as originally described by Siegmund^2. […] Rotundine was orally administrated 1 hour before acetic acid injection. After intraperitoneal injection of 0.2 ml acetic acid (0.8% w/v) in physiological saline (0.9% w/v NaCl), animals were isolated for observation. The numbers of abdominal writhing syndrome/events, which consisted of the contraction of the abdominal area with extension of hind legs, were recorded during a 15 minutes period in each animal.
In general terms: In writhing tests, fewer writhes than in controls are read as antinociception.

Assay [4] deals with radiant heat stimulation-induced tail flick reaction. Kind of assay: tail flick test, radiant heat stimulation in mice. As to conditions: for Tail flick reaction time: 50 mg/kg oral. The format is in vivo, ICR mice. As to the method: Animal Material. Male and female ICR mice weighing 18-24 g and male SD rats weighing 150-210 g were purchased from the Laboratory Animal Services Center, the Chinese University of Hong Kong, Hong Kong. The animals were acclimated for more than 1 week under 12 hours light and 12 hours dark cycle at room temperature of 22±1° C. Chow diet and water were provided ad libitum. Animal care and treatment procedures conformed to the Institutional Guidelines and Animal Ordinance (Department of Health, Hong Kong Special Administrative Region.) Mice and rats were fasted for 16 hours and 48 hours, respectively, before experiment.
Mode of Administration. The PSF solutions for anti-inflammatory and analgesic experiments were prepared by dissolving the product in 30% propanediol solution (for i.p. injection) and 0.5% (w/v) carboxymethylcellulose sodium salt (CMC—Na) (for orally administration), respectively. The reference drug indomethacin for anti-inflammatory test was dissolved in a vehicle that consisted of 10% peanut oil, 10% Tween-80 and 80% distilled water. Rotundine was suspended in 0.5% (w/v) CMC—Na salt and used as reference drug for anti-nociceptive experiment.
The anti-nociceptive effects of PSF and the reference drug, expressed as the time required for mice tail flick after exposure to a source of radiant heat, were evaluated according to the description of d'Amour^3. […] The tail-flick response was elicited by applying radiant heat to the point ⅓ of length away from the tip of the tail. The apparatus was arranged so that when the operator turned on the lamp a timer was activated. When the mice felt pain and flicked its tail, light fell on the photocell such that the timer was automatically stopped. The intensity of the heat stimulus in the tail-flick test was adjusted so that the animal flicked its tail within 3 to 6 seconds. A 12 seconds cut-off time was set in order to prevent tail tissues from damage. Before the experiment, the heat stimulation latency of all animals was tested, and those with response time to heat stimulation from […] were excluded. The tail-flick response was measured at 0.5, 1, and 2 hours after oral administration of PSF (200, 100 and 50 mg/kg body weight) or rotundine (50 mg/kg, as reference drug) or vehicle.

The mark [5] stands for this setting: oral, in comparison with vehicle-treated animals.

The structures appear in SMILES notation.

Take `COc1ccc2c(c1)c(CC(=O)O)c(C)n2C(=O)c1ccc(Cl)cc1` [Indomethacin]: the “Changes in swelling percentage after carrageenan injection (%)” value amounted to 8.54 ± 4.97 % in assay [1] (1 h after carrageenan); 10.80 ± 7.77 % in assay [1] (2 h after carrageenan); 9.49 ± 6.63 % in assay [1] (3 h after carrageenan); 13.53 ± 10.13 % in assay [1] (4 h after carrageenan); 17.43 ± 9.21 % in assay [1] (6 h after carrageenan); 34.70 ± 9.21% in assay [1] (8 h after carrageenan). In addition, the “Change in paw swelling after histamine injection (%)” value came to 29.72 ± 10.67% in assay [2] (0.5 h after histamine); 14.64 ± 9.21 % in assay [2] (1 h after histamine); 11.51 ± 6.61 % in assay [2] (2 h after histamine); 11.35 ± 7.35% in assay [2] (3 h after histamine); 7.43 ± 6.05 % in assay [2] (4 h after histamine); 4.17 ± 6.05% in assay [2] (6 h after histamine). Also, the “effect on histamine-induced edema” value in assay [2] (at a later time than PSF) is “significant inhibitory effect”.
Consider `COc1cc2c(cc1OC)[C@@H]1Cc3ccc(OC)c(OC)c3CN1CC2` [Rotundine], for which the “Inhibition (%)” value in assay [3] (50 mg/kg oral 1 hour before acetic acid) is listed as 100%. The molecule also yielded a Writhing count in assay [3] (50 mg/kg oral 1 hour before acetic acid, 15 minutes period) of 0.00 ± 0.00. For the same molecule, the “effect on number of writhing episodes of mice” value in assay [3] (setting [5]) was “complete analgesia”. Moreover, the “Tail flick reaction time” value in assay [4] (0.5 h after administration) is 7.552 ± 3.301 s; in assay [4] (1 h after administration), 11.044 ± 1.658 s; in assay [4] (2 h after administration), 9.813 ± 3.069 s; in assay [4] (time 0), 4.223 ± 0.458 s. Besides, in assay [4] (setting [5]), the “effect on tail flick reaction time of mice” value is reported as “prolonged the reaction time”.

The record behind these values is US7544668B2, “Saponins derived from Ilex pubescens and method of purifying the same” (priority 2006, dated 2009).
